According to patent publication US9056865B2, “Pyridine-2-derivatives as smoothened receptor modulators” (Pfizer Inc., priority 2010, dated 2015):

Assays:
human Smo = human Smo (Homo sapiens (Human), UniProt Q99835); experiment: Smo radioligand competition binding assay; settings: for inhibition at 0.05 µM: 0.05 μM test compound, read-out: Smo % inh. @ 0.05 μM
Method: Smo Radioligand Competition Binding Assay
Membranes were prepared from a stable cell line created in HEK293FlpIn-TetR cells (Invitrogen) using Flp recombinase-mediated insertion of the pSecTag-FRT/V5-His vector containing a cDNA encoding amino acids […] of human Smo fused to the murine Igk leader sequence to produce a cell surface expressed Smo 181-781 protein. Hygromycin-resistant clones were obtained and stained for LacZ expression (no expression indicates a correct knock-in of fusion cDNA). LacZ-negative cells were analyzed for binding tritiated Smo antagonists. For membrane preparation, the HEK293 cells expressing Smo 181-781 were grown to 90% confluence in nine to fifteen 245 mm×245 mm×22 mm dishes, washed with Dulbecco's PBS (15 mL per dish) and harvested via scraping in 10 mL of DPBS. The cells were collected and centrifuged at 1500 rpm (400×g) for 10 min at 4° C. The cell pellets were re-suspended in 40 mL of cold DPBS and washed by centrifugation at 2300 rpm (950×g max) for 10 minutes at 4° C. The supernatant was aspirated and the cell pellet was snap frozen in a methanol/dry ice bath and stored at −70° C. For membrane preparation, 15 mL of Membrane Preparation Buffer (50 mM Tris-HCl pH 7.5, 250 mM sucrose with Roche complete protease cocktail tablets) was added to the tube containing the cell pellet, then cells are rapidly thawed, and homogenized using an Ultra-Turrax T8 (IKA Labortechnik) set on “6” for 15 seconds for 5-6 times in icy water bath. This homogenate was diluted up to 50 mL using Membrane Preparation Buffer and centrifuged at 35,000 rpm in a Beckman Ti45 rotor (140,000×g) for 35 minutes at 4° C. followed by aspiration of the supernatant and re-suspension of the pellet in 5 mL of Assay Buffer (50 mM Tris-HCl pH 7.5, 100 mM NaCl, 25 mM MgCl2, 1 mM EDTA, and 0.1% protease free bovine serum albumin). The re-suspended pellet was then homogenized in a glass tissue grinder. The re-suspended membranes were aliquoted (0.5 mL aliquots), snap frozen and stored at −70° C. Total protein in the membrane preparation was determined using the Pierce BCA protein assay (Pierce Chemical).
For the binding competition assay, 100 μL of Assay Buffer was added to all the wells of a 96 well GF/B filter plate (Millipore MultiScreen-HTS-FB cat# MSFBN6B50) for 10 minutes to pre-wet the filter prior to evacuation of the buffer (8 inches Hg for 8 seconds). To the pre-wet wells is added: 20 μL of Assay Buffer, 10 μL diluted test agent, 20 μL of a tritiated Smo antagonist (15 nM stock solution), and 50 μL of membrane preparation (40 μg total protein per well). The plates are sealed and mixed at room temperature for 5 min, incubated at room temperature for 2 hours, then washed 5 times with 100 μL/each of wash buffer and vacuum dried for 8 seconds at 8 inches Hg. The plate is then dried for one hour in a 60° C. oven prior to the addition of 45 μL of Microscint 20 (Packard, #6013621) to each well and incubation at RT for 30 minutes to 1 hour. The plate is counted in a TopCount scintillation counter (Perkin Elmer).
Data analysis uses Excel for % Inhibition and Graphpad Prism for IC50 calculation. Total binding (TB, in the absence of inhibitors)=average of tritiated Smo antagonist 3 nM+Smo membrane (40 μg/wells (approx 5000-7000 CPM)). Non-specific binding (NSB)=average of tritiated Smo antagonist (3 nM)+cold Smo antagonist (30 μM)+Smo membrane (approx 600-1200 CPM). Specific binding (SB)=(total binding−non-specific binding). % Inhibition=[1−(compound Specific binding/control Specific binding)]×100%. IC50 is calculated by fitting the data to the four parameter sigmoidal dose-response curve (variable slope) Y=Bottom+(Top-Bottom)/(1+10^((LogEC50−X)*HillSlope)). X is the logarithm of the inhibitor concentration. Y is the response; Y starts at Bottom and goes to Top with a sigmoid shape.

Gli-Luc/MEF cells = experiment: Gli-Luc/MEF assay; format: cell-based, mouse; settings: Mus musculus, MEF; Shh-stimulated luciferase, 48 hours
Method: The Gli-Luc/MEF cells obtained from Gli-Luc transgenic mice contain a luciferase reporter gene under the control of the Gli response element. Luciferase activity stimulated with Sonic hedgehog ligand was inhibited by Smo inhibitors, and IC50 was subsequently calculated.
Plates were incubated at 37° C. and 5% CO2 overnight. On day two, cells were dosed with test compounds at a final concentration ranging from 3 μM to 50 μM at a 3-time series dilution. Immediately after dosing cells with compounds, recombinant mouse sonic hedgehog (Shh, R&D Systems 464-SH) was added to a final concentration of 2 μg/mL. The cells were incubated with compounds and Shh for 48 hours at 37° C. and 5% CO2. Luciferase assays were conducted on Day 4 using the Bright-Glo Luciferase assay system (Promega E2620) according to Promega's protocol. Briefly, Bright-Glo luciferase reagent was made up and 25 μL were added to each well of the 384-well plate containing media. Plates were kept at room temperature for 5 minutes, and then read on an Envision Luminescence plate reader (Perkin-Elmer). IC50 of the inhibition was calculated by using GraphPad Prism.

Chain of human Smo (Q99835 181-787): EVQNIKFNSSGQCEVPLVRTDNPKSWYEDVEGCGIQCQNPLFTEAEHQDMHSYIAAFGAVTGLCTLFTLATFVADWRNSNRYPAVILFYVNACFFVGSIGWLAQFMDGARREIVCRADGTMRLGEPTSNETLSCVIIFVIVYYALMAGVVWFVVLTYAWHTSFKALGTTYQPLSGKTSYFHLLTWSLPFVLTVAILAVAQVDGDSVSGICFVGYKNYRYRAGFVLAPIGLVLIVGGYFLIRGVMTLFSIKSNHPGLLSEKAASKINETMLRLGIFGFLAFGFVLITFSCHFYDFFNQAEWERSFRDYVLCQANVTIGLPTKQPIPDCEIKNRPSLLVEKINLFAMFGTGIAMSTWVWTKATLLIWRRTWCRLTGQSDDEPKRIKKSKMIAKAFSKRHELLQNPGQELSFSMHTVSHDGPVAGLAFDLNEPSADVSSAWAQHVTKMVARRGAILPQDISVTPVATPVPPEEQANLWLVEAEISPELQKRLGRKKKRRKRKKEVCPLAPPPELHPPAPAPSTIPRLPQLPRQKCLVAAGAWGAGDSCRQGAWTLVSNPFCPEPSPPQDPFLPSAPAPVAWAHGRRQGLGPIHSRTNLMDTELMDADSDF

Cc1cccnc1-c1cc(N2CCC(C(=O)N[C@H]3CC[C@H](O)CC3)CC2)ncc1Cl (stereo in doubt) [Example A-71, 1-(5′-chloro-3-methyl-2,4′-bipyridin-2′-yl)-N-(trans-4-hydroxycyclohexyl)piperidine-4-carboxamide]
IC50 (human Smo): 0.0729 µM
inhibition at 0.05 µM (human Smo): 85.7%
IC50 (Gli-Luc/MEF cells): 0.0394 µM

CS(=O)(=O)NC1CCN(c2cc(-c3ccccn3)c(Cl)cn2)CC1 [Example A-7, N-[1-(5′-chloro-2,4′-bipyridin-2′-yl)piperidin-4-yl]methanesulfonamide]
inhibition at 0.05 µM (human Smo): 45%

Cc1cccnc1-c1cc(N2CCC(NS(C)(=O)=O)CC2)ncc1Cl [Example A-8, N-[1-(5′-chloro-3-methyl-2,4′-bipyridin-2′-yl)piperidin-4-yl]methanesulfonamide]
IC50 (human Smo): 0.0187 µM
inhibition at 0.05 µM (human Smo): 92%
IC50 (Gli-Luc/MEF cells): 0.0392 µM

Cc1ccc(-c2cc(N3CCC(NS(C)(=O)=O)CC3)ncc2Cl)nc1 [Example A-9, N-[1-(5′-chloro-5-methyl-2,4′-bipyridin-2′-yl)piperidin-4-yl]methanesulfonamide]
IC50 (human Smo): 0.075 µM
inhibition at 0.05 µM (human Smo): 65%
IC50 (Gli-Luc/MEF cells): 0.226 µM

CS(=O)(=O)NC1CCN(c2cc(-c3ncccc3Cl)c(Cl)cn2)CC1 [Example A-10, N-[1-(3,5′-dichloro-2,4′-bipyridin-2′-yl)piperidin-4-yl]methanesulfonamide]
IC50 (human Smo): 0.0321 µM
inhibition at 0.05 µM (human Smo): 75%
IC50 (Gli-Luc/MEF cells): 0.209 µM

CS(=O)(=O)NC1CCN(c2cc(-c3ccc(Cl)cn3)c(Cl)cn2)CC1 [Example A-11, N-[1-(5,5′-dichloro-2,4′-bipyridin-2′-yl)piperidin-4-yl]methanesulfonamide]
IC50 (human Smo): 0.0329 µM
inhibition at 0.05 µM (human Smo): 78%
IC50 (Gli-Luc/MEF cells): 0.152 µM

CS(=O)(=O)NC1CCN(c2cc(-c3ncc(Cl)cc3Cl)c(Cl)cn2)CC1 [Example A-12, N-[1-(3,5,5′-trichloro-2,4′-bipyridin-2′-yl)piperidin-4-yl]methanesulfonamide]
IC50 (human Smo): 0.0188 µM
inhibition at 0.05 µM (human Smo): 88%
IC50 (Gli-Luc/MEF cells): 0.0534 µM

CS(=O)(=O)NC1CCN(c2cc(-c3ccc(C(F)(F)F)cn3)c(Cl)cn2)CC1 [Example A-13, N-{1-[5′-chloro-5-(trifluoromethyl)-2,4′-bipyridin-2′-yl]piperidin-4-yl}methanesulfonamide]
IC50 (human Smo): 0.11 µM
inhibition at 0.05 µM (human Smo): 56%
IC50 (Gli-Luc/MEF cells): 0.404 µM

Cc1cnc(-c2cc(N3CCC(NS(C)(=O)=O)CC3)ncc2Cl)c(C)c1 [Example A-14, N-[1-(5′-chloro-3,5-dimethyl-2,4′-bipyridin-2′-yl)piperidin-4-yl]methanesulfonamide]
IC50 (human Smo): 0.0064 µM
inhibition at 0.05 µM (human Smo): 95%
IC50 (Gli-Luc/MEF cells): 0.0164 µM

CS(=O)(=O)NC1CCN(c2ccc(Cl)c(-c3ccccn3)n2)CC1 [Example A-15, N-[1-(3-chloro-2,2′-bipyridin-6-yl)piperidin-4-yl]methanesulfonamide]
IC50 (human Smo): 0.0343 µM
inhibition at 0.05 µM (human Smo): 83%
IC50 (Gli-Luc/MEF cells): 0.0785 µM

Cc1cccnc1-c1nc(N2CCC(NS(C)(=O)=O)CC2)ccc1Cl [Example A-16, N-[1-(3-chloro-3′-methyl-2,2′-bipyridin-6-yl)piperidin-4-yl]methanesulfonamide]
IC50 (human Smo): 0.0206 µM
inhibition at 0.05 µM (human Smo): 97.8%
IC50 (Gli-Luc/MEF cells): 0.0145 µM

CS(=O)(=O)NC1CCN(c2cc(-c3ncc(Cl)cc3F)c(Cl)cn2)CC1 [Example A-17, N-[1-(5,5′-dichloro-3-fluoro-2,4′-bipyridin-2′-yl)piperidin-4-yl]methanesulfonamide]
IC50 (human Smo): 0.511 µM
inhibition at 0.05 µM (human Smo): 63%
IC50 (Gli-Luc/MEF cells): 0.06 µM

CS(=O)(=O)NC1CCN(c2cc(-c3ccc(F)cn3)c(Cl)cn2)CC1 [Example A-18, N-[1-(5′-chloro-5-fluoro-2,4′-bipyridin-2′-yl)piperidin-4-yl]methanesulfonamide]
IC50 (human Smo): 0.343 µM
inhibition at 0.05 µM (human Smo): 58.9%
IC50 (Gli-Luc/MEF cells): 0.082 µM

Cc1cccnc1-c1cc(N2CCN(c3ccc(C#N)cn3)CC2)ncc1Cl [Example A-19, 6-[4-(5′-chloro-3-methyl-2,4′-bipyridin-2′-yl)piperazin-1-yl]nicatinonitrile]
IC50 (human Smo): 0.0375 µM
inhibition at 0.05 µM (human Smo): 91.5%
IC50 (Gli-Luc/MEF cells): 0.0101 µM

Cc1cccnc1-c1cc(N2CCC3(CC2)CN(C)C(=O)O3)ncc1Cl [Example A-20, 8-(5′-chloro-3-methyl-2,4′-bipyridin-2′-yl)-3-methyl-1-oxa-3,8-diazaspiro[4.5]decan-2-one]
IC50 (human Smo): 0.407 µM
inhibition at 0.05 µM (human Smo): 64.6%
IC50 (Gli-Luc/MEF cells): 0.109 µM

Cc1cccnc1-c1cc(N2CCC3(CC2)CNC(=O)O3)ncc1Cl [Example A-21, 8-(5′-chloro-3-methyl-2,4′-bipyridin-2′-yl)-1-oxa-3,8-diazaspiro[4.5]decan-2-one]
IC50 (human Smo): 0.297 µM
inhibition at 0.05 µM (human Smo): 65.9%
IC50 (Gli-Luc/MEF cells): 0.114 µM

Cc1cccnc1-c1cc(N2CCN(S(C)(=O)=O)CC2)ncc1Cl [Example A-22, 5′-chloro-3-methyl-2′-[4-(methylsulfonyl)piperazin-1-yl]-2,4′-bipyridine]
IC50 (human Smo): 0.11 µM
inhibition at 0.05 µM (human Smo): 81.5%
IC50 (Gli-Luc/MEF cells): 0.042 µM

CC(=O)N1CCN(c2cc(-c3ncccc3C)c(Cl)cn2)CC1 [Example A-23, 2′-(4-acetylpiperazin-1-yl)-5′-chloro-3-methyl-2,4′-bipyridine]
IC50 (human Smo): 0.417 µM
inhibition at 0.05 µM (human Smo): 59.5%
IC50 (Gli-Luc/MEF cells): 0.194 µM

COC(=O)N1CCN(c2cc(-c3ncccc3C)c(Cl)cn2)CC1 [Example A-24, methyl 4-(5′-chloro-3-methyl-2,4′-bipyridin-2′-yl)piperazine-1-carboxylate]
IC50 (human Smo): 0.243 µM
inhibition at 0.05 µM (human Smo): 69.3%
IC50 (Gli-Luc/MEF cells): 0.126 µM

Cc1cccnc1-c1cc(N2CCN(C(=O)CO)CC2)ncc1Cl [Example A-25, 2-[4-(5′-chloro-3-methyl-2,4′-bipyridin-2′-yl)piperazin-1-yl]-2-oxoethanol]
IC50 (human Smo): 0.239 µM
inhibition at 0.05 µM (human Smo): 72.1%
IC50 (Gli-Luc/MEF cells): 0.197 µM

CC(=O)N1CCN(c2ncc(Cl)c(-c3ncccc3C)n2)CC1 [Example A-26, 2-(4-acetylpiperazin-1-yl)-5-chloro-4-(3-methylpyridin-2-yl)pyrimidine]
IC50 (human Smo): 0.359 µM
inhibition at 0.05 µM (human Smo): 69.9%
IC50 (Gli-Luc/MEF cells): 0.189 µM

COCCC(=O)NC1CCN(c2cc(-c3ncccc3C)c(Cl)cn2)CC1 [Example A-27, N-[1-(5′-chloro-3-methyl-2,4′-bipyridin-2′-yl)piperidin-4-yl]-3-methoxypropanamide]
IC50 (human Smo): 0.107 µM
inhibition at 0.05 µM (human Smo): 75.7%
IC50 (Gli-Luc/MEF cells): 0.0211 µM

O=S(=O)(CCO)N1CCN(c2ccc(Cl)c(-c3ccccn3)n2)CC1 [Example A-137, 2-{[4-(3-chloro-2,2′-bipyridin-6-yl)piperazin-1-yl]sulfonyl}ethanol]
inhibition at 0.05 µM (human Smo): 45.8%
